Reference: patent US20230141101A1, “PDE4 INHIBITOR COMPOUND AND MEDICAL USE THEREOF” (Suzhou Longbotai Pharmaceuticals Co., Ltd., priority 2020, published 2023)

Tests used:
Assay type in all cases: biochemical
Settings in all cases: 20 nM
PDE4B1 = biological target: T1, PDE4B1 (Homo sapiens, UniProt Q07343); assay: PDE4 inhibitory activity assay (FAM-cAMP enzymatic reaction), PDE4B1
T1 construct: purchased BPS 60041
Summary of the method: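 Each isoform is incubated with test compound for 15 min at room temperature before FAM-cAMP substrate starts a 30-min reaction.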

PDE4A1A = biological target: T2, PDE4A1A (Homo sapiens, UniProt P27815); assay: PDE4 inhibitory activity assay (FAM-cAMP enzymatic reaction), PDE4A1A
T2 construct: purchased BPS 60040
Summary of the method: (§1)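 Inhibition rates from a fluorescence read gave IC50 values. Each enzyme (PDE4A1A, PDE4B1, PDE4D2) sat with compound for 15 min at room temperature; FAM-cAMP then started a 30 min room-temperature reaction, ended with stop solution and left 60 min more.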

PDE4D2 = PDE4D2 (Homo sapiens, UniProt Q08499); assay: PDE4 inhibitory activity assay (FAM-cAMP enzymatic reaction), PDE4D2
Summary of the method: as §1

Sequence of PDE4D2 (Q08499 303-809): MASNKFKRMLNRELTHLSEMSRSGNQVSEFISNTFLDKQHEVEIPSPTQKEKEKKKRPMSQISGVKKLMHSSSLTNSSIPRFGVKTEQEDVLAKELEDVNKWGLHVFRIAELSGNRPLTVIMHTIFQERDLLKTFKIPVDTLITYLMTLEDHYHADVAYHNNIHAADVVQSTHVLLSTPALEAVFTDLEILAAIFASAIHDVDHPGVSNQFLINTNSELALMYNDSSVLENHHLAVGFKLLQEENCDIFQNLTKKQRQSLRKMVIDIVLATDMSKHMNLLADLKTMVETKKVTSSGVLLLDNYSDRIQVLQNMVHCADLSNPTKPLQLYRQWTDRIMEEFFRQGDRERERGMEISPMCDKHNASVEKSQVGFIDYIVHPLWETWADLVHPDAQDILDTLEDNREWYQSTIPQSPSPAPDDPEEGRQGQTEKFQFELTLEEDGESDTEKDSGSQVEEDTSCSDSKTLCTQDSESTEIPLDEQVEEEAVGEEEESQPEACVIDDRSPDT
T1 sequence (Q07343 whole entry): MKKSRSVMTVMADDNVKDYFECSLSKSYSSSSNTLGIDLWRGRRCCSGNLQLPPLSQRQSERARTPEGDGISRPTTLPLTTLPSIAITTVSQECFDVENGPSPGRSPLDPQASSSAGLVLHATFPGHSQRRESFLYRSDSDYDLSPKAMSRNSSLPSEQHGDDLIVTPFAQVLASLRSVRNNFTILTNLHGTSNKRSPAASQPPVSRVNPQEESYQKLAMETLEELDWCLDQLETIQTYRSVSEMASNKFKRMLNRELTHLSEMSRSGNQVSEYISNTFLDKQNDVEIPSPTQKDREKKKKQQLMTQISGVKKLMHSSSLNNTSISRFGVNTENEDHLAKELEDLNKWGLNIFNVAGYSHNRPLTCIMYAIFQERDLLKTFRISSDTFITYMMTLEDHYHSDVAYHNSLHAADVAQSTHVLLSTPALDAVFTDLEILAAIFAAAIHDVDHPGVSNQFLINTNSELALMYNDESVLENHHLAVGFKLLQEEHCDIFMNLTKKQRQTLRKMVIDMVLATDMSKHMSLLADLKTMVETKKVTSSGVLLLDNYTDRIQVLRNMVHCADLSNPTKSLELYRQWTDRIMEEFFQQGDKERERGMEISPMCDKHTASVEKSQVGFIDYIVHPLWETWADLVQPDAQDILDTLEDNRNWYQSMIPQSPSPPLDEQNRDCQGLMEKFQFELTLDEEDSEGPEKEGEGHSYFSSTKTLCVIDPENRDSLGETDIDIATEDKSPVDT
T2 sequence (P27815 1-647 isoform P27815-4): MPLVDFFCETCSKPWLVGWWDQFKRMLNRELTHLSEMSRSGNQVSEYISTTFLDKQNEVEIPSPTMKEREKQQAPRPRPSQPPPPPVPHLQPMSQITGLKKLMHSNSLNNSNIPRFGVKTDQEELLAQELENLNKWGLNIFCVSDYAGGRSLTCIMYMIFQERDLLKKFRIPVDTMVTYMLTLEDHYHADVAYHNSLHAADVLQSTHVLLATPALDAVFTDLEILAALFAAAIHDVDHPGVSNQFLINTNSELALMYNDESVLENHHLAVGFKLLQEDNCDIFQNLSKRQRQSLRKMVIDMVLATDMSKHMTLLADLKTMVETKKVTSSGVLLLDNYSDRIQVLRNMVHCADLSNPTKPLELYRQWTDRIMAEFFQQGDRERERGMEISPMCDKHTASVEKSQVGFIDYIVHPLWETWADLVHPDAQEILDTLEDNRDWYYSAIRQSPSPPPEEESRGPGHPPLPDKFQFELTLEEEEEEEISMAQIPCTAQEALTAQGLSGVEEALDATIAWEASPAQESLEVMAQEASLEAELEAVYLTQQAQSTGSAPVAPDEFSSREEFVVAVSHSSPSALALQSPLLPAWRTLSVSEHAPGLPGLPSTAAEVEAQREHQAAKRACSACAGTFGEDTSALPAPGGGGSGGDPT

SMILES | PDE4 B1 inhibitory effect at 20 nM (PDE4B1) | PDE4 A1 inhibitory effect at 20 nM (PDE4A1A) | PDE4 D2 inhibitory effect at 20 nM (PDE4D2)
CCOc1nc([C@@H](CS(C)(=O)=O)n2c(=O)n(C)c3cc(-c4ccc(C)cc4F)ccc32)ccc1OC [Ex. 180, (S)-5-(2-fluoro-4-methylphenyl)-1-(1-(6-ethoxy-5-methoxypyridin-2-yl)-2-(methylsulfonyl)ethyl)-3-methyl-1H-benzo[d]imidazol-2(3H)-one] | + | + | +
CCOc1nc([C@@H](CS(C)(=O)=O)n2c(=O)[nH]c3cc(-c4cc(OC)ccc4F)ccc32)ccc1OC [Ex. 181, (S)-5-(2-fluoro-5-methoxyphenyl)-1-(1-(6-ethoxy-5-methoxypyridin-2-yl)-2-(methylsulfonyl)ethyl)-1H-benzo[d]imidazol-2(3H)-one] | + | + | +
CCOc1nc([C@@H](CS(C)(=O)=O)n2c(=O)n(C)c3cc(-c4cc(OC)ccc4F)ccc32)ccc1OC [Ex. 182, (S)-5-(2-fluoro-5-methoxyphenyl)-1-(1-(6-ethoxy-5-methoxypyridin-2-yl)-2-(methylsulfonyl)ethyl)-3-methyl-1H-benzo[d]imidazol-2(3H)-one] | + | + | +
CCOc1nc([C@@H](CS(C)(=O)=O)n2c(=O)[nH]c3cc(-c4cccc(OC)c4F)ccc32)ccc1OC [Ex. 183, (S)-5-(2-fluoro-3-methoxyphenyl)-1-(1-(6-ethoxy-5-methoxypyridin-2-yl)-2-(methylsulfonyl)ethyl)-1H-benzo[d]imidazol-2(3H)-one] | + | + | +
CCOc1nc([C@@H](CS(C)(=O)=O)n2c(=O)[nH]c3cc(-c4ccc(OC)cc4F)ccc32)ccc1OC [Ex. 184, (S)-5-(2-fluoro-4-methoxyphenyl)-1-(1-(6-ethoxy-5-methoxypyridin-2-yl)-2-(methylsulfonyl)ethyl)-1H-benzo[d]imidazol-2(3H)-one] | + | + | +
CCOc1nc([C@@H](CS(C)(=O)=O)n2c(=O)n(C)c3cc(-c4ccc(OC)cc4F)ccc32)ccc1OC [Ex. 185, (S)-5-(2-fluoro-4-methoxyphenyl)-1-(1-(6-ethoxy-5-methoxypyridin-2-yl)-2-(methylsulfonyl)ethyl)-3-methyl-1H-benzo[d]imidazol-2(3H)-one] | + | + | +
CCOc1nc([C@@H](CS(C)(=O)=O)n2c(=O)[nH]c3cc(-c4cc(F)ccc4OC)ccc32)ccc1OC [Ex. 186, (S)-5-(5-fluoro-2-methoxyphenyl)-1-(1-(6-ethoxy-5-methoxypyridin-2-yl)-2-(methylsulfonyl)ethyl)-1H-benzo[d]imidazol-2(3H)-one] | + | + | +
CCOc1nc([C@@H](CS(C)(=O)=O)n2c(=O)n(C)c3cc(-c4cc(F)ccc4OC)ccc32)ccc1OC [Ex. 187, (S)-5-(5-fluoro-2-methoxyphenyl)-1-(1-(6-ethoxy-5-methoxypyridin-2-yl)-2-(methylsulfonyl)ethyl)-3-methyl-1H-benzo[d]imidazol-2(3H)-one] | + | + | +
CCOc1nc([C@@H](CS(C)(=O)=O)n2c(=O)[nH]c3cc(-c4ccc(F)cc4OC)ccc32)ccc1OC [Ex. 188, (S)-5-(4-fluoro-2-methoxyphenyl)-1-(1-(6-ethoxy-5-methoxypyridin-2-yl)-2-(methylsulfonyl)ethyl)-1H-benzo[d]imidazol-2(3H)-one] | + | + | +
CCOc1nc([C@@H](CS(C)(=O)=O)n2c(=O)n(C)c3cc(-c4ccc(F)cc4OC)ccc32)ccc1OC [Ex. 189, (S)-5-(4-fluoro-2-methoxyphenyl)-1-(1-(6-ethoxy-5-methoxypyridin-2-yl)-2-(methylsulfonyl)ethyl)-3-methyl-1H-benzo[d]imidazol-2(3H)-one] | + | + | +
CCOc1nc([C@@H](CS(C)(=O)=O)n2c(=O)[nH]c3cc(-c4c(F)cccc4OC)ccc32)ccc1OC [Ex. 190, (S)-5-(6-fluoro-2-methoxyphenyl)-1-(1-(6-ethoxy-5-methoxypyridin-2-yl)-2-(methylsulfonyl)ethyl)-1H-benzo[d]imidazol-2(3H)-one] | + | + | +
CCOc1nc([C@@H](CS(C)(=O)=O)n2c(=O)n(C)c3cc(-c4c(F)cccc4OC)ccc32)ccc1OC [Ex. 191, (S)-5-(6-fluoro-2-methoxyphenyl)-1-(1-(6-ethoxy-5-methoxypyridin-2-yl)-2-(methylsulfonyl)ethyl)-3-methyl-1H-benzo[d]imidazol-2(3H)-one] | + | + | +
CCOc1ccccc1-c1ccc2c(c1)[nH]c(=O)n2[C@H](CS(C)(=O)=O)c1ccc(OC)c(OCC)n1 [Ex. 192, (S)-1-(1-(6-ethoxy-5-methoxypyridin-2-yl)-2-(methylsulfonyl)ethyl)-5-(2-ethoxyphenyl)-1H-benzo[d]imidazol-2(3H)-one] | + | + | +
CCOc1ccccc1-c1ccc2c(c1)[nH]c(=O)n2[C@@H](CS(C)(=O)=O)c1ccc(OC)c(OCC)n1 [Ex. 193, (R)-1-(1-(6-ethoxy-5-methoxypyridin-2-yl)-2-(methylsulfonyl)ethyl)-5-(2-ethoxyphenyl)-1H-benzo[d]imidazol-2(3H)-one] | − | − | −
CCOc1nc([C@@H](CS(C)(=O)=O)n2c(=O)[nH]c3cc(-c4ccccn4)ccc32)ccc1OC [Ex. 194, (S)-1-(1-(6-ethoxy-5-methoxypyridin-2-yl)-2-(methylsulfonyl)ethyl)-5-(pyridin-2-yl)-1H-benzo[d]imidazol-2(3H)-one] | + | + | +
CCOc1nc([C@H](CS(C)(=O)=O)n2c(=O)[nH]c3cc(-c4ccccn4)ccc32)ccc1OC [Ex. 195, (R)-1-(1-(6-ethoxy-5-methoxypyridin-2-yl)-2-(methylsulfonyl)ethyl)-5-(pyridin-2-yl)-1H-benzo[d]imidazol-2(3H)-one] | − | − | −
CCOc1nc([C@@H](CS(C)(=O)=O)n2c(=O)n(C)c3cc(-c4ccccn4)ccc32)ccc1OC [Ex. 196, (S)-1-(1-(6-ethoxy-5-methoxypyridin-2-yl)-2-(methylsulfonyl)ethyl)-3-methyl-5-(pyridin-2-yl)-1H-benzo[d]imidazol-2(3H)-one] | + | + | +
